Counter-ions that a name gives are not always drawn.

This test has as its target SYK (Homo sapiens, UniProt P43405). Nature of the test: SYK inhibition assay: SYK-mediated phosphorylation of FAM-labeled substrate (Caliper microfluidic). The test is classed as biochemical. The settings on record: read-out: SYK Inhibition (pIC50) (converted).
Consider `Cc1cccc(Nc2nc(N[C@@H]3CCCC[C@@H]3N)c(I)c3c2C(=O)NC3)c1` [Example 81, 6-((1R,2S)-2-Aminocyclohexylamino)-7-iodo-4-(m-tolylamino)-1H-pyrrolo[3,4-c]pyridin-3(2H)-one], for which the IC50 is 0.00316 µM.

As for `Cc1ccc(-c2nc(N[C@@H]3CCCC[C@@H]3N)c(F)c3c2C(=O)NC3)s1` [Example 108, 6-((1R,2S)-2-Aminocyclohexylamino)-7-fluoro-4-(5-methylthiophen-2-yl)-1H-pyrrolo[3,4-c]pyridin-3(2H)-one], the IC50 was 0.00251 µM.

`Cn1cc(-c2nc(N3CCC[C@H](N)C3)c(F)c3c2C(=O)NC3)cn1` [Example 96, (S)-6-(3-Aminopiperidin-1-yl)-7-fluoro-4-(1-methyl-1H-pyrazol-4-yl)-1H-pyrrolo[3,4-c]pyridin-3(2H)-one]: the IC50 was 0.2 µM.

`Cn1cc(-c2nc(N[C@@H]3CC(F)(F)C[C@@H]3N)c(F)c3c2C(=O)NC3)cn1` (relative stereo) [Example 66, 6-(cis-2-Amino-4,4-difluorocyclopentylamino)-7-fluoro-4-(1-methyl-1H-pyrazol-4-yl)-1H-pyrrolo[3,4-c]pyridin-3(2H)-one]: the IC50 is 0.501 µM.

Turning to `Cc1ccc(-c2nc(N[C@@H]3CCOC[C@@H]3N)c(F)c3c2C(=O)NC3)s1` [Example 123, 6-((3R,4R)-3-Aminotetrahydro-2H-pyran-4-ylamino)-7-fluoro-4-(5-methylthiophen-2-yl)-1H-pyrrolo[3,4-c]pyridin-3(2H)-one], the IC50 is 0.00794 µM.

`Cc1ccc(-c2nc(N[C@H](CC(C)C)C(N)=O)c(F)c3c2C(=O)NC3)o1` [Example 115, (R)-2-(7-Fluoro-4-(5-methylfuran-2-yl)-3-oxo-2,3-dihydro-1H-pyrrolo[3,4-c]pyridin-6-ylamino)-4-methylpentanamide]: the IC50 is 0.316 µM.

As to `COC[C@H](N)CNc1cc2c(c(Nc3cccc(C)c3)n1)C(=O)NC2` [Example 77, (R)-6-(2-Amino-3-methoxypropylamino)-4-(m-tolylamino)-1H-pyrrolo[3,4-c]pyridin-3(2H)-one], the IC50 was 0.0316 µM.

Regarding `Cn1cc(-c2nc(N[C@@H]3CCCC[C@@H]3N)c(Br)c3c2C(=O)NC3)cn1` [Example 99, 6-((1R,2S)-2-Aminocyclohexylamino)-7-bromo-4-(1-methyl-1H-pyrazol-4-yl)-1H-pyrrolo[3,4-c]pyridin-3(2H)-one], the IC50 is 0.00316 µM.

For the compound `N[C@H]1COCC[C@H]1Nc1nc(-n2cnc(C(F)(F)F)c2)c2c(c1F)CNC2=O` [Example 130, 6-((3R,4R)-3-Aminotetrahydro-2H-pyran-4-ylamino)-7-fluoro-4-(4-(trifluoromethyl)-1H-imidazol-1-yl)-1H-pyrrolo[3,4-c]pyridin-3(2H)-one], the IC50 is 10 µM.

On to `Cc1ccc(-c2nc(N[C@H](CC(C)C)C(N)=O)c(F)c3c2C(=O)NC3)s1` [Example 111, (R)-2-(7-Fluoro-4-(5-methylthiophen-2-yl)-3-oxo-2,3-dihydro-1H-pyrrolo[3,4-c]pyridin-6-ylamino)-4-methylpentanamide], for which the IC50 is 0.00794 µM.

On to `N[C@H]1COCC[C@H]1Nc1nc(-c2cnn(C3CC3)c2)c2c(c1F)CNC2=O` [Example 136, 6-((3R,4R)-3-Aminotetrahydro-2H-pyran-4-ylamino)-4-(1-cyclopropyl-1H-pyrazol-4-yl)-7-fluoro-1H-pyrrolo[3,4-c]pyridin-3(2H)-one], for which the IC50 is 0.0316 µM.

For `CC(C)C[C@@H](Nc1nc(-c2cnn(C3CC3)c2)c2c(c1F)CNC2=O)C(N)=O` [Example 72, (R)-2-(4-(1-Cyclopropyl-1H-pyrazol-4-yl)-7-fluoro-3-oxo-2,3-dihydro-1H-pyrrolo[3,4-c]pyridin-6-ylamino)-4-methylpentanamide], the IC50 was 0.0316 µM.

On to `N[C@H]1CCCC[C@H]1Nc1nc2c(c(-c3cnc4ccccn34)n1)C(=O)NC2` [Example 20, 2-((1R,2S)-2-Aminocyclohexylamino)-4-(imidazo[1,2-a]pyridin-3-yl)-6,7-dihydro-5H-pyrrolo[3,4-d]pyrimidin-5-one], for which the IC50 is 0.2 µM.

In the case of `Cc1cccc(Nc2nc(N[C@@H]3CCCC[C@@H]3O)nc3c2C(=O)NC3)c1` (relative stereo) [Example 11, Cis-2-(2-Hydroxycyclohexylamino)-4-(m-tolylamino)-6,7-dihydro-5H-pyrrolo[3,4-d]pyrimidin-5-one], the IC50 is 1.26 µM.

For the compound `Cc1c(-c2nc(N[C@@H]3CCCC[C@@H]3N)nc3c2C(=O)NC3)cnn1C` [Example 46, 2-((1R,2S)-2-Aminocyclohexylamino)-4-(1,5-dimethyl-1H-pyrazol-4-yl)-6,7-dihydro-5H-pyrrolo[3,4-d]pyrimidin-5-one], the IC50 was 1.58 µM.

For the compound `CS(=O)(=O)c1cccc(Nc2nc(N[C@@H]3CCC[C@@H]3N)cc3c2C(=O)NC3)c1` [Example 34, 6-((1R,2S)-2-Aminocyclopentylamino)-4-(3-(methylsulfonyl)phenylamino)-1H-pyrrolo[3,4-c]pyridin-3(2H)-one (HCl salt)], the IC50 is 0.316 µM.

Take `Cc1cccc(Nc2nc(-c3cnn(C)c3)nc3c2C(=O)NC3)c1` [Example 7, 2-(1-Methyl-1H-pyrazol-4-yl)-4-(m-tolylamino)-6,7-dihydro-5H-pyrrolo[3,4-c]pyrimidin-5-one]: the IC50 is 1 µM.

Turning to `CCOC[C@H](N)CNc1nc(Nc2cccc(C)c2)c2c(c1F)CNC2=O` [Example 55, (R)-6-(2-Amino-3-ethoxypropylamino)-7-fluoro-4-(m-tolylamino)-1H-pyrrolo[3,4-c]pyridin-3(2H)-one], the IC50 was 0.0158 µM.

As to `COC[C@H](N)CNc1nc(Nc2cccc(C)c2)c2c(c1F)CNC2=O` [Example 79, (R)-6-(2-Amino-3-methoxypropylamino)-7-fluoro-4-(m-tolylamino)-1H-pyrrolo[3,4-c]pyridin-3(2H)-one], the IC50 was 0.02 µM.

On to `Cc1cccc(Nc2nc(N[C@@H]3COC[C@@H]3N)cc3c2C(=O)NC3)c1` (relative stereo) [Example 58, 6-(cis-4-Aminotetrahydrofuran-3-ylamino)-4-(m-tolylamino)-1H-pyrrolo[3,4-c]pyridin-3(2H)-one], for which the IC50 was 1.58 µM.

With `N[C@H]1CCCC[C@H]1Nc1nc2c(c(Nc3cccc(F)c3)n1)C(=O)NC2` [Example 2, 2-((1R,2S)-2-Aminocyclohexylamino)-4-(3-fluorophenylamino)-6,7-dihydro-5H-pyrrolo[3,4-c]pyrimidin-5-one], the IC50 is 0.126 µM.

For the compound `CC(C)Cn1cc(-c2nc(N[C@@H]3CCCC[C@@H]3N)nc3c2C(=O)NC3)cn1` [Example 15, 2-((1R,2S)-2-Aminocyclohexylamino)-4-(1-isobutyl-1H-pyrazol-4-yl)-6,7-dihydro-5H-pyrrolo[3,4-c]pyrimidin-5-one], the IC50 is 1 µM.

As to `CCCn1cc(-c2nc(N[C@@H]3CCCC[C@@H]3N)nc3c2C(=O)NC3)cn1` [Example 21, 2-((1R,2S)-2-Aminocyclohexylamino)-4-(1-propyl-1H-pyrazol-4-yl)-6,7-dihydro-5H-pyrrolo[3,4-c]pyrimidin-5-one], the IC50 is 0.501 µM.

As for `N[C@H]1COCC[C@H]1Nc1nc(-c2coc3ccccc23)c2c(c1F)CNC2=O` [Example 94, 6-((3R,4R)-3-Aminotetrahydro-2H-pyran-4-ylamino)-4-(benzofuran-3-yl)-7-fluoro-1H-pyrrolo[3,4-c]pyridin-3(2H)-one], the IC50 is 0.00316 µM.

These data come from patent US9181255B2, “Fused heteroaromatic pyrrolidinones as SYK inhibitors” (Takeda Pharmaceutical Company Limited, priority 2009, dated 2015).
